{
  "source": "patent US20120171123A1",
  "about": "“USES AND COMPOSITIONS FOR TREATMENT OF RHEUMATOID ARTHRITIS” (priority 2006, published 2012)",
  "tested_on": "patients with long-standing, moderate to severe RA",
  "assay": "Study 5 (open-label extension, adalimumab 40 mg eow + MTX, into 7th year): long-term efficacy (ACR, DAS28, TJC, SJC, HAQ) and withdrawals",
  "format": "in vivo, human",
  "settings": "Year 7",
  "experimental": "After these trials, patients were eligible to enroll in two separate OLE studies: Study 4 and Study 5. Patients were evaluated for efficacy and safety every 3 months.\nEfficacy outcomes were evaluated as observed data: DAS28; ACR 20/50/70; Tender Joint Count (TJC); Swollen Joint Count (SJC); and HAQ Disability Index. Baseline demographics and disease characteristics were similar in both Study 4 and Study 5 consistent with moderate to severe RA, as shown below in Table 64: […]",
  "data": [
    {"substance": "adalimumab: human anti-TNF mAb (HUMIRA, Abbott Laboratories), described in U.S. Pat. No. 6,090,382 as D2E7", "values": [
      {"measurement": "patients achieving clinical remission (DAS28<2.6)", "result": "Over 40%"}
    ]}
  ]
}
